Results as given in the NIST ThermoML archive (doi:10.1016/j.tca.2015.01.017).
Numbers after ± are expanded uncertainties.

Experiments:
[1] = Molar enthalpy of transition or fusion; conditions: DSC
[2] = DTA; for Normal melting temperature: Crystal 1

| SMILES | Molar enthalpy of transition or fusion ([1]; Crystal 1) | Molar enthalpy of transition or fusion ([1]; Crystal 3) | Normal melting temperature [2] | Triple point temperature ([2]; Crystal 2) | Triple point temperature ([2]; Crystal 3) | Triple point temperature ([2]; Crystal 4) | Molar enthalpy of transition or fusion ([1]; Crystal) |
| --- | --- | --- | --- | --- | --- | --- | --- |
| Oc1c(Cl)c(Cl)c(Cl)c(Cl)c1Cl [pentachlorophenol] | 3.68 ± 0.122 kcal/mol | 2.15 ± 0.0837 kcal/mol | 191.7 ± 0.5 °C | 441.6 ± 0.5 K | 340.2 ± 0.5 K | 287.4 ± 0.5 K | – |
| Clc1c(Cl)c(Cl)c(Cl)c(Cl)c1Cl [hexachlorobenzene] | – | – | 231 ± 0.5 °C | – | – | – | 5.72 ± 0.17 kcal/mol |
